Experimental data published in patent publication US20230340011A1 (Asteroid Therapeutics, priority 2022, published 2023).

Assays:
SREBP-2 = SREBP-2 (Homo sapiens (Human), UniProt Q12772); assay: In vitro assay SREBP-2: PathHunter U2OS SREBP-2 Nuclear Translocation Cell Line, U18666A-stimulated; assay type: cell-based; conditions: PathHunter U2OS SREBP-2 nuclear translocation cells, U18666A 10 μM, overnight (16 hours)
LXRβ = LXRβ (Homo sapiens (Human), UniProt P55055); assay: In vitro assay LXRβ: PathHunter NHR CHO cells, LXRβ / Steroid Receptor Co-activator Peptide enzyme fragment complementation; assay type: cell-based; conditions: PathHunter NHR CHO cells, full-length human LXRβ and SRCP, chemiluminescent signal; read-out: LXRβ PPI
In short: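 Co-activator recruitment measured by chemiluminescence after signal generation. The CHO line carries full-length human LXRβ tagged with ProLink and an SRCP–enzyme acceptor fusion in the nucleus; cells sat overnight at 37° C before testing, in charcoal-dextran filtered serum medium with 1% final vehicle.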

Sequence of LXRβ (P55055 whole entry, the tested form may be a part): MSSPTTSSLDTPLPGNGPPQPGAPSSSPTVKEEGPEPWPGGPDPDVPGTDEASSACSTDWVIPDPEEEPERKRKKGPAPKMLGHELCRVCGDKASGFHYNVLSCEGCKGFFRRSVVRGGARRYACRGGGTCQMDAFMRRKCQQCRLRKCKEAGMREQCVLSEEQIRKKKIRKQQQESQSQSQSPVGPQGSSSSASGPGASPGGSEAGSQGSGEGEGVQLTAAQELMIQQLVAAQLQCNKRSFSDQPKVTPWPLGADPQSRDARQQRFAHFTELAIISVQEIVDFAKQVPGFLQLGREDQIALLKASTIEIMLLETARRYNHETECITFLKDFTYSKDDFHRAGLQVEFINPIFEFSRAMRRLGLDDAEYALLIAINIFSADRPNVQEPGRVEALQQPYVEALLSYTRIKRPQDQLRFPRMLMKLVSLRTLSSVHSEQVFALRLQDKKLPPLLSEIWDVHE

SMILES	IC50 (SREBP-2) [nM]	EC50 (LXRβ) [nM]
C[C@H](CCC(=O)N1CCN(C(=O)C2CCCC2)CC1)[C@H]1CC[C@H]2[C@@H]3CC=C4C[C@@H](O)CC[C@]4(C)[C@H]3CC[C@]12C [Example 515, (R)-1-(4-(cyclopentanecarbonyl)piperazin-1-yl)-4-((3S,8S,9S,10R,13R,14S,17R)-3-hydroxy-10,13-dimethyl-2,3,4,7,8,9,10,11,12,13,14,15,16,17-tetradecahydro-1H-cyclopenta[a]phenanthren-17-yl)pentan-1-one]	< 250	> 10000
C[C@H](CCC(=O)N1CCNC(=O)C1)[C@H]1CC[C@H]2[C@@H]3CC=C4C[C@@H](O)CC[C@]4(C)[C@H]3CC[C@]12C [Example 362, 4-[(4R)-4-[(1R,3aS,3bS,7S,9aR,9bS,11aR)-7-hydroxy-9a,11a-dimethyl-1H,2H,3H,3aH,3bH,4H,6H,7H,8H,9H,9aH,9bH,10H,11H,11aH-cyclopenta[a]phenanthren-1-yl]pentanoyl]piperazin-2-one]	250 to 1000	> 10000
C[C@H]1CCN(C(=O)CC[C@@H](C)[C@H]2CC[C@H]3[C@@H]4CC=C5C[C@@H](O)CC[C@]5(C)[C@H]4CC[C@]23C)C1 [Example 114, (R)-4-((3S,8S,9S,10R,13R,14S,17R)-3-hydroxy-10,13-dimethyl-2,3,4,7,8,9,10,11,12,13,14,15,16,17-tetradecahydro-1H-cyclopenta[a]phenanthren-17-yl)-1-((S)-3-methylpyrrolidin-1-yl)pentan-1-one]	< 250	250 to 1000
CNC(=O)NCC1(C)CCN(C(=O)CC[C@@H](C)[C@H]2CC[C@H]3[C@@H]4CC=C5C[C@@H](O)CC[C@]5(C)[C@H]4CC[C@]23C)CC1 [Example 364, 1-((1-((R)-4-((3S,8S,9S,10R,13R,14S,17R)-3-hydroxy-10,13-dimethyl-2,3,4,7,8,9,10,11,12,13,14,15,16,17-tetradecahydro-1H-cyclopenta[a]phenanthren-17-yl)pentanoyl)-4-methylpiperidin-4-yl)methyl)-3-methylurea]	< 250	> 10000
C[C@H](CCC(=O)N(C)C1CCN(C(=O)C2CC2)CC1)[C@H]1CC[C@H]2[C@@H]3CC=C4C[C@@H](O)CC[C@]4(C)[C@H]3CC[C@]12C [Example 642, (R)—N-(1-(cyclopropanecarbonyl)piperidin-4-yl)-4-((3S,8S,9S,10R,13R,14S,17R)-3-hydroxy-10,13-dimethyl-2,3,4,7,8,9,10,11,12,13,14,15,16,17-tetradecahydro-1H-cyclopenta[a]phenanthren-17-yl)-N-methylpentanamide]	< 250	> 10000
C[C@H](CCC(=O)N1CCN(c2nnnn2C)CC1)[C@H]1CC[C@H]2[C@@H]3CC=C4C[C@@H](O)CC[C@]4(C)[C@H]3CC[C@]12C [Example 606, (R)-4-((3S,8S,9S,10R,13R,14S,17R)-3-hydroxy-10,13-dimethyl-2,3,4,7,8,9,10,11,12,13,14,15,16,17-tetradecahydro-1H-cyclopenta[a]phenanthren-17-yl)-1-(4-(1-methyl-1H-tetrazol-5-yl)piperazin-1-yl)pentan-1-one]	< 250	> 10000
CC(=O)N[C@@H]1CCN(C(=O)CC[C@@H](C)[C@H]2CC[C@H]3[C@@H]4CC=C5C[C@@H](O)CC[C@]5(C)[C@H]4CC[C@]23C)C1 [Example 324, N-[(3R)-1-[(4R)-4-[(1R,3aS,3bS,7S,9aR,9bS,11aR)-7-hydroxy-9a,11a-dimethyl-1H,2H,3H,3aH,3bH,4H,6H,7H,8H,9H,9aH,9bH,10H,11H,11aH-cyclopenta[a]phenanthren-1-yl]pentanoyl]pyrrolidin-3-yl]acetamide]	250 to 1000	> 10000
C[C@H](CCC(=O)N1CCN(C(=O)N2CCC2)CC1)[C@H]1CC[C@H]2[C@@H]3CC=C4C[C@@H](O)CC[C@]4(C)[C@H]3CC[C@]12C [Example 208, (R)-1-(4-(azetidine-1-carbonyl)piperazin-1-yl)-4-((3S,8S,9S,10R,13R,14S,17R)-3-hydroxy-10,13-dimethyl-2,3,4,7,8,9,10,11,12,13,14,15,16,17-tetradecahydro-1H-cyclopenta[a]phenanthren-17-yl)pentan-1-one]	< 250	> 10000
CON(C(=O)CC[C@@H](C)[C@H]1CC[C@H]2[C@@H]3CC=C4C[C@@H](O)CC[C@]4(C)[C@H]3CC[C@]12C)C(C)CO (stereo partly drawn) [Example 66, (4R)-4-((3S,8S,9S,10R,13R,14S,17R)-3-hydroxy-10,13-dimethyl-2,3,4,7,8,9,10,11,12,13,14,15,16,17-tetradecahydro-1H-cyclopenta[a]phenanthren-17-yl)-N-(1-hydroxypropan-2-yl)-N-methoxypentanamide]	250 to 1000	250 to 1000
COc1cncc(N2CCN(C(=O)CC[C@@H](C)[C@H]3CC[C@H]4[C@@H]5CC=C6C[C@@H](O)CC[C@]6(C)[C@H]5CC[C@]34C)CC2)c1 [Example 660, (R)-4-((3S,8S,9S,10R,13R,14S,17R)-3-hydroxy-10,13-dimethyl-2,3,4,7,8,9,10,11,12,13,14,15,16,17-tetradecahydro-1H-cyclopenta[a]phenanthren-17-yl)-1-(4-(5-methoxypyridin-3-yl)piperazin-1-yl)pentan-1-one]	< 250	> 10000
C[C@H](CCc1ncccn1)[C@H]1CC[C@H]2[C@@H]3CC=C4C[C@@H](O)CC[C@]4(C)[C@H]3CC[C@]12C [Example 133, (1R,3aS,3bS,7S,9aR,9bS,11aR)-9a,11a-dimethyl-1-[(2R)-4-(pyrimidin-2-yl)butan-2-yl]-1H,2H,3H,3aH,3bH,4H,6H,7H,8H,9H,9aH,9bH,10H,11H,11aH-cyclopenta[a]phenanthren-7-ol]	250 to 1000	250 to 1000
Cc1nn(C)cc1N1CCN(C(=O)CC[C@@H](C)[C@H]2CC[C@H]3[C@@H]4CC=C5C[C@@H](O)CC[C@]5(C)[C@H]4CC[C@]23C)CC1 [Example 604, (4R)-4-[(1R,3aS,3bS,7S,9aR,9bS,11aR)-7-hydroxy-9a,11a-dimethyl-1H,2H,3H,3aH,3bH,4H,6H,7H,8H,9H,9aH,9bH,10H,11H,11aH-cyclopenta[a]phenanthren-1-yl]-1-[4-(1,3-dimethyl-1H-pyrazol-4-yl)piperazin-1-yl]pentan-1-one]	< 250	> 10000
C[C@H](CCC(=O)N1CCN(C(=O)N2CC[C@@H]2C)CC1)[C@H]1CC[C@H]2[C@@H]3CC=C4C[C@@H](O)CC[C@]4(C)[C@H]3CC[C@]12C [Example 665, (R)-4-((3S,8S,9S,10R,13R,14S,17R)-3-hydroxy-10,13-dimethyl-2,3,4,7,8,9,10,11,12,13,14,15,16,17-tetradecahydro-1H-cyclopenta[a]phenanthren-17-yl)-1-(4-((S)-2-methylazetidine-1-carbonyl)piperazin-1-yl)pentan-1-one]	< 250	> 10000
C[C@H](CCc1cccnn1)[C@H]1CC[C@H]2[C@@H]3CC=C4C[C@@H](O)CC[C@]4(C)[C@H]3CC[C@]12C [Example 134, (1R,3aS,3bS,7S,9aR,9bS,11aR)-9a,11a-dimethyl-1-[(2R)-4-(pyridazin-3-yl)butan-2-yl]-1H,2H,3H,3aH,3bH,4H,6H,7H,8H,9H,9aH,9bH,10H,11H,11aH-cyclopenta[a]phenanthren-7-ol]	> 10000	250 to 1000
C[C@H](CCC(=O)N1CCN(C(=O)N2CCCC2)[C@@H](C)C1)[C@H]1CC[C@H]2[C@@H]3CC=C4C[C@@H](O)CC[C@]4(C)[C@H]3CC[C@]12C [Example 654, (4R)-4-[(1R,3aS,3bS,7S,9aR,9bS,11aR)-7-hydroxy-9a,11a-dimethyl-1H,2H,3H,3aH,3bH,4H,6H,7H,8H,9H,9aH,9bH,10H,11H,11aH-cyclopenta[a]phenanthren-1-yl]-1-[(3 S)-3-methyl-4-(pyrrolidine-1-carbonyl)piperazin-1-yl]pentan-1-one]	< 250	> 10000
C[C@H](CCC(=O)N1CCC(N(C)C(=O)c2ccncc2)CC1)[C@H]1CC[C@H]2[C@@H]3CC=C4C[C@@H](O)CC[C@]4(C)[C@H]3CC[C@]12C [Example 288, N-(1-((R)-4-((3S,8S,9S,10R,13R,14S,17R)-3-hydroxy-10,13-dimethyl-2,3,4,7,8,9,10,11,12,13,14,15,16,17-tetradecahydro-1H-cyclopenta[a]phenanthren-17-yl)pentanoyl)piperidin-4-yl)-N-methylisonicotinamide]	250 to 1000	> 10000
C[C@H](CCC(=O)N1CCN(C(=O)c2ccncn2)CC1)[C@H]1CC[C@H]2[C@@H]3CC=C4C[C@@H](O)CC[C@]4(C)[C@H]3CC[C@]12C [Example 334, (R)-4-((3S,8S,9S,10R,13R,14S,17R)-3-hydroxy-10,13-dimethyl-2,3,4,7,8,9,10,11,12,13,14,15,16,17-tetradecahydro-1H-cyclopenta[a]phenanthren-17-yl)-1-(4-(pyrimidine-4-carbonyl)piperazin-1-yl)pentan-1-one]	< 250	> 10000
CC(=O)N1C[C@@H]2CN(C(=O)CC[C@@H](C)[C@H]3CC[C@H]4[C@@H]5CC=C6C[C@@H](O)CC[C@]6(C)[C@H]5CC[C@]34C)C[C@@H]2C1 [Example 318, (4R)-1-[(3aR,6aS)-5-acetyl-octahydropyrrolo[3,4-c]pyrrol-2-yl]-4-[(1R,3aS,3bS,7S,9aR,9bS,11aR)-7-hydroxy-9a,11a-dimethyl-1H,2H,3H,3aH,3bH,4H,6H,7H,8H,9H,9aH,9bH,10H,11H,11aH-cyclopenta[a]phenanthren-1-yl]pentan-1-one]	250 to 1000	> 10000
